The numbers were not newly measured in EP4062897A1, “HAIR CARE COMPOSITION AND PREPARATION METHOD THEREFOR” (BioRight Worldwide Company Limited, priority 2019, dated 2021), which cites them from elsewhere.

In general, half-life refers to the time in which the quantity being followed falls by half.

For the data set the following is noted: in aqueous solution, typical value.

In the case of `NC(=O)c1ccc[n+]([C@@H]2O[C@H](COP(=O)([O-])O)[C@@H](O)[C@H]2O)c1` [nicotinamide mononucleotide, Nicotinamide mononucleotide], the half-life is recorded as 14 days.
